Measurements: patent publication US11617748B2, “Meclozine derivatives and diclazuril derivatives for use in the prevention and/or the treatment of disorders associated to the inflammation induced by P. acnes” (priority 2016, dated 2023)

Tests used:
Assay type in all cases: cell-based, human
IL-8 production = assay: P. acnes-induced IL-8 production in HaCaT keratinocytes (ELISA); details: for reduction of IL-8 production, 24 h pre-treatment / effect on IL-8 production (time course, FIG. 4A) / effect on IL-8 production at 12.5 μM, in words / reduction of IL-8 production, 1 and 6 h pre-treatment / decrease of IL-8 production, 48 h pre-treatment: HaCaT; for reduction of IL-8 production, 24 h pre-treatment: 6.25 μM; for reduction of IL-8 production, 24 h pre-treatment / reduction of IL-8 production, 1 and 6 h pre-treatment / decrease of IL-8 production, 48 h pre-treatment: P. acnes 18 h; for effect on IL-8 production (time course, FIG. 4A): 10 μM, P. acnes 15-180 min; for reduction of IL-8 production, 24 h pre-treatment / effect on IL-8 production (time course, FIG. 4A): 24 h pre-treatment; for effect on IL-8 production at 12.5 μM, in words: 24 h pre-treatment (FIG. 8B); for reduction of IL-8 production, 1 and 6 h pre-treatment: 0.39 to 12.5 μM; for IC50: Homo sapiens, HaCaT cells pre-treated 24 h, then stimulated with P. acnes, read-out: IC50 of inhibition of IL-8 production
Description: Bacterial strain and conditions of growth. P. acnes strain 6919 was obtained from the American Type Culture Collection (Manassas, Va.) and P. acnes strains RON and PIE were isolated from patient with joint infection. All strains were grown under anaerobic conditions in reinforced clostridial liquid and solid medium (RCM) (Difco Laboratories, Detroit, Mich.). P. acnes was transferred from the bacterial stock onto RCM agar plate and incubated for 5 days under anaerobic condition by using a GasPak™ EZ Anaerobic Container System (Becton Dickinson & Co, Sparks Md., USA). A single colony was transferred into 100 ml RCM and grown as described above. Bacterial suspension was then store frozen at −80° C. in presence of 10% glycerol final. This stock was called «start stock» and used for all the experiments. For routine culture, 100 ml of RCM was used and bacteria were harvested after 5 days at 37° C. by centrifugation at 7,000×g for 10 min at 4° C. Pellets were pooled and washed in about 30 ml of cold sterile PBS [1.5 mM KH2PO4, 2.7 mM Na2HPO4.7H2O, 0.15 M NaCl (pH 7.4)] and centrifuged again as described above. Finally, the bacterial pellet was suspended in sterile PBS (1:10 from volume culture).
Cell culture, pretreatment and stimulation. The immortalized human keratinocyte cell line HaCaT, fibroblast MRC5 were grown in Dulbecco's modified Eagle's medium-Glutamax-I (DMEM) with 1 mM sodium pyruvate. The immortalized human monocytic cell line ThP1 was grown in Roswell Park Memorial Institute 1640 Medium-Glutamax-I (RPMI). DMEM and RPMI were supplemented with 0.1% and 10% heat-inactivated fetal calf serum (Invitrogen), and an antibiotic/antimycotic solution (10 U/ml Pencillin, 10 μg/ml Streptomycin, 0.25 μg/ml Amphoterin) at 37° C. in humidified atmosphere containing 5% CO2 as described (Life Technologie). Primary human keratinocytes (NHDK) and fibroblast (HDF) were grown in the KGM-Gold and in FGM-2 Bullet Kit, respectively, as described by the manufacturer (Lonza). The immortalized cell lines were routinely tested to assess the absence of Mycoplasma infection. Cells, cultivated in 6- or 96-well polystyrene plates, were pretreated with appropriate molecule solution for 1 to 48 h at 37° C. in the dark at the appropriate concentration. Then, for stimulation, cells were incubated for 15 min to 24 h with the P. acnes suspension adjusted at the appropriate concentration at 37° C. in 5% CO2. For experiences using an in vitro model of psoriasis, the primary human keratinocytes (NHDK) were grown in culture medium for 24 hours. The medium was removed and replaced with culture medium containing meclozine, diclazuril and JAK inhibitor (used as positive control) at the concentrations of 0.39, 0.78, 1.56, 3.12, 6.25 and 12.5 μM and the pro-inflammatory mixture M5 (combination of IL-17A, OSM, TNF-α, IL-22, IL-1α at 10 ng/ml) was added to the cells followed by an incubation for 48 or 72 hours.
ELISA. Human IL-1β, IL-8, hBD-2 and TNF-α protein concentration were measured in the supernatants of stimulated cells using various ELISA Sets (all from Ready-Set-Go from eBioscience, except hBD-2 measurements: Human DEFB4A/BD-2 ELISA Kit from LSBio) according to the manufacturer's instructions. We used serial dilutions of recombinant human IL-1β, IL-8, hBD-2 and TNF-α for standard curve. The optical density was determined at 450 nm at a wavelength correction of 540 nm.
Both molecules, diclazuril and meclozine, were purchased separately from Sigma and tested independently on immortalized keratinocytes HaCaT cell for their capacity to inhibit the IL-8 production in a dose-dependent manner. HaCaT cells were pre-treated with diclazuril and meclozine, at the concentrations ranging from 0.39 to 50 μM, for 24 h and then stimulated with P. acnes suspension as described in Materials and Methods. The production of IL-8 was measured on culture supernatant by ELISA and the viability of cells was estimated by MTT assay (FIG. 1).

PKC = assay: Western blot of p-PKC/PKC in P. acnes-stimulated HaCaT cells; details: 25 μM, 24 h pre-treatment
Description: (§1) Western Blot analysis. Whole cell protein extracts (25 μg) were separated by electrophoresis (LDS-PAGE) under denaturing conditions with NuPAGE Novex 4-12% Bis-Tris gel (1 mm, 12 wells, Invitrogen, UK) and proteins were transferred onto nitrocellulose membranes and saturated in 20 ml of saturation buffer consisting of TBS 1× (Tris Buffered Saline) containing 200 mM Tris, 1.4 M NaCl (pH 7.6), 5% no fat milk, 0.1% Tween 20 for 1 h. […] After washing to remove unbound antibodies, bound primary antibodies were detected by incubation for 1 h using secondary antibody against rabbit- and mouse IgG (Santa Cruz Biotechnology, SC-2357, 1:5000 and SC-2005, 1:5000, respectively). Unbound material was removed by washing and peroxidase activity was detected in a chemiluminescence assay (WesternBright ECL, Advansta, Menlo Park, USA). […]

PI3K = assay: Western blot of p-PI3K/PI3K in P. acnes-stimulated HaCaT cells; details: 25 μM, 24 h pre-treatment
Description: as §1

| SMILES | reduction of IL-8 production, 24 h pre-treatment (IL-8 production) [%] | effect on IL-8 production (time course, FIG. 4A) (IL-8 production) | effect on IL-8 production at 12.5 μM, in words (IL-8 production) | reduction of IL-8 production, 1 and 6 h pre-treatment (IL-8 production) | decrease of IL-8 production, 48 h pre-treatment (IL-8 production) [%] | IC50 (IL-8 production) [µM] | phosphorylation of PKC induced by P. acnes (PKC) | phosphorylation of PI3K induced by P. acnes (PI3K) |
| --- | --- | --- | --- | --- | --- | --- | --- | --- |
| N#CC(c1ccc(Cl)cc1)c1c(Cl)cc(-n2ncc(=O)[nH]c2=O)cc1Cl (stereo not shown) [diclazuril, Diclazuril] | 36 | inhibit | strong effect | did not reduce significantly | 65 | ~6 | prevented the phosphorylation | prevented the phosphorylation |
| Cc1cccc(CN2CCN(C(c3ccccc3)c3ccc(Cl)cc3)CC2)c1 (stereo not shown) [meclozine, Meclozine] | 63 | inhibit | strong effect | did not reduce significantly | 78 | ~3 | prevented the phosphorylation | prevented the phosphorylation |
